Laboratory results published in patent US9229013B2, “Vasoactive hormone-based stratification of patients suffering from diseases related to endothelial function/dysfunction” (B.R.A.H.M.S GMBH, priority 2009, dated 2016).
Marks after values point to notes of the source that are not given here.

How the values were obtained:
[1] = test system: patients having suffered from ischemic or haemorrhagic stroke or TIA; assay: COSMOS study: survival (deaths), hazard ratio medication vs no medication, stratified by biomarker quintile; type: in vivo, human; conditions: for effect of administration at high (higher) levels of vasoactive hormones / effect of administration at low (lower) levels of vasoactive hormones: COSMOS study, summary of Table 2; for HR Medicament Marker-Quintile 5 / HR Medicament Marker-Quintile 1 / HR Medicament Marker-Quintile 2-4 / HR Medicament (overall patient group): COSMOS
Text: (§1) Suitable threshold levels for the stratification of subjects into different groups (categories) have to be determined for each particular combination of vasoactive hormone or fragments thereof or precursors or fragments thereof, medication and disease. This can e.g. be done by grouping a reference population of patients according to their level of vasoactive hormone into certain quantiles, e.g. tertiles, quartiles, quintiles or even according to suitable percentiles. […] A HR around 1 (e.g. +/−0.1) indicates no elevated risk but also no benefit from medication for the particular group of patients. By comparison of the HR between certain quantiles of patients with each other and with the HR of the overall population of patients, it is possible to identify those quantiles of patients who have an elevated risk and those who benefit from medication and thereby stratify subjects according to the present invention.
FIGS. 9 to 13 illustrate the survival rate for patients suffering from ischemic stroke, hemorrhagic stroke or transient ischemic attack from the “Copeptin to guide disease severity and Management, Osmostatus and Stress” (“COSMOS”).
The study was set at the emergency and neurological and neurosurgical clinic of the University Hospital of Basel. All consecutive patients who are admitted to the emergency department with an ischemic or hemorrhagic stroke or transient ischemic attack (TIA) according to the World Health Organization criteria with symptom onset within the last 3 days were included into the study. Patients without an informed consent were excluded.
Step 5. In patients with ischemic stroke a telephone follow-up regarding morbidity and mortality (as assessed by the Barthel Index and Ranking Scale) will be obtained after 3 months. An unfavorable outcome will be defined as a Barthel index <85 or modified Ranking scale of 3 to 6. II) Post-Myocardial Infarction (MI) Patients (Leicester Acute Myocardial Infarction Peptide Study (“LAMP”)) Study Population:
(§2) Survival rates, i.e. the proportion of patients surviving at a given time after entry into the studies, are plotted in the appended figures over time for different combinations of a particular vasoactive hormone with a particular medication. The patients have been stratified into quintiles according to their respective hormone levels. […] For some cases, two or more quintiles have been pooled were appropriate. Hazard ratios (HR) have been calculated for various combinations of particular vasoactive hormones with particular medications. HR have also been calculated for particular quintiles and/or pooled quintiles and compared to overall HR for each combination.
Table 2 lists the results for the patients from the COSMOS study (patients having suffered from ischemic or haemorrhagic stroke or TIA).

[2] = test system: patients having suffered a myocardial infarction; assay: LAMP study (Outcome Death): hazard ratio medication vs no medication, stratified by biomarker quintile; type: in vivo, human; conditions: for HR Medicament in Marker-Quantile 1 / HR Medicament in Marker-Quantile 2-4 / HR Medicament in Marker-Quantile 5 / HR Medicament (overall patient group): LAMP, Outcome Death
Text: Suitable threshold levels for the stratification of subjects into different groups (categories) have to be determined for each particular combination of vasoactive hormone or fragments thereof or precursors or fragments thereof, medication and disease. This can e.g. be done by grouping a reference population of patients according to their level of vasoactive hormone into certain quantiles, e.g. tertiles, quartiles, quintiles or even according to suitable percentiles. […] A HR around 1 (e.g. +/−0.1) indicates no elevated risk but also no benefit from medication for the particular group of patients.
(§3) FIGS. 14 to 21 illustrate the survival rate for patients suffering from myocardial infarction from the “Leicester Acute Myocardial Infarction Peptide Study” (“LAMP”). FIGS. 22 to 34 illustrate the rate of major cardiac events for patients suffering from acute myocardial infarction from “LAMP-Study”.
Acute myocardial infarction was subcategorized into ST-segment elevation myocardial infarction (STEMI) or non-ST-segment myocardial infarction (NSTEMI).
(§4) Blood samples were drawn on 1 occasion 3 to 5 days after the onset of chest pain. After 15 min bed rest, 20 ml blood was collected into tubes containing ethylendiaminetetraacetic acid (EDTA) and aprotinin. All plasma samples were stored at −70° C. until assayed in a blinded fashion in a single batch.
as §2

[3] = test system: patients having suffered a myocardial infarction; assay: LAMP study (Outcome MACE): hazard ratio medication vs no medication, stratified by biomarker quintile; type: in vivo, human
Text: as §1, §3
The study involved 983 consecutive patients with acute myocardial infarction (AMI) admitted to the Coronary Care Unit of Leicester Royal Infirmary. […] Acute myocardial infarction was subcategorized into ST-segment elevation myocardial infarction (STEMI) or non-ST-segment myocardial infarction (NSTEMI).
as §4, with “batch. In a subgroup of 132 patients from the original 983-patient cohort, blood sampling was performed daily for 5 days from admission to discharge.” for “batch.”
as §2

[4] = test system: patients with chronic ischemic left ventricular dysfunction; conditions: patients exhibiting a higher pre-treatment plasma NT-proBNP and adrenomedullin (ADM); cited from earlier work
[5] = test system: patients with severe congestive heart failure in NYHA class IV; conditions: mortality after 6 months; patients stratified by peptide concentrations below and above median; cited from earlier work

## CC(=O)Oc1ccccc1C(=O)O [Acetylsalicylic acid]
[1]
  effect of administration at high (higher) levels of vasoactive hormones: unfavourable effect
  effect of administration at low (lower) levels of vasoactive hormones: positive effect
[1]; CT-proAVP 23.5-499 pmol/L
  HR Medicament Marker-Quintile 5: 2.6
[1]; CT-proET-1 4.5-55.5 pmol/L
  HR Medicament Marker-Quintile 1: 0.5
[1]; CT-proET-1 55.5-93.1 pmol/L
  HR Medicament Marker-Quintile 2-4: 1.5
[1]; CT-proET-1 93.1-368 pmol/L
  HR Medicament Marker-Quintile 5: 2.5
[1]; MR-proADM 0.05-0.47 nmol/L
  HR Medicament Marker-Quintile 1: 0.6
[1]; MR-proADM 0.47-0.91 nmol/L
  HR Medicament Marker-Quintile 2-4: 0.7
[1]; MR-proADM 0.91-5.49 nmol/L
  HR Medicament Marker-Quintile 5: 2.4
[1]; MR-proANP 20.8-71.6 pmol/L
  HR Medicament Marker-Quintile 1: <0.1
[1]; MR-proANP 71.6-240 pmol/L
  HR Medicament Marker-Quintile 2-4: 1.7
[1]; MR-proANP 240-1560 pmol/L
  HR Medicament Marker-Quintile 5: 2.3
[1]; Quintiles 1 to 4 are pooled, CT-proAVP 0.69-23.5 pmol/L
  HR Medicament Marker-Quintile 2-4: 0.8*
[1]; biomarker CT-proAVP
  HR Medicament (overall patient group): 1.3
[1]; biomarker CT-proET-1
  HR Medicament (overall patient group): 1.4
[1]; biomarker MR-proADM
  HR Medicament (overall patient group): 1
[1]; biomarker MR-proANP
  HR Medicament (overall patient group): 1.3
[1]; FIG. 12A, marker MR-proANP, overall population, n=209 with medication
  deaths with medication: 20
[1]; FIG. 12B, 1st MR-proANP quintile (22.3-69.5 pmol/L), n=51 with medication
  deaths with medication: 0
[1]; FIG. 12C, 2nd to 4th MR-proANP quintiles (69.5-250 pmol/L), n=124 with medication
  deaths with medication: 6
[1]; FIG. 12D, 5th MR-proANP quintile (250-1540 pmol/L), n=34 with medication
  deaths with medication: 14
[2]; CT-proAVP 0.31-4.6 pmol/L
  HR Medicament in Marker-Quantile 1: >100
[2]; CT-proAVP 4.6-42.1 pmol/L
  HR Medicament in Marker-Quantile 2-4: 0.4
[2]; CT-proAVP 42.1-1040 pmol/L
  HR Medicament in Marker-Quantile 5: 0.3
[2]; MR-proADM 0.035-0.47 nmol/L
  HR Medicament in Marker-Quantile 1: >100
[2]; MR-proADM 0.47-1.18 nmol/L
  HR Medicament in Marker-Quantile 2-4: 0.5
[2]; MR-proADM 1.18-6.75 nmol/L
  HR Medicament in Marker-Quantile 5: 0.3
[2]; MR-proANP 14.5-59.6 pmol/L
  HR Medicament in Marker-Quantile 1: >100
[2]; MR-proANP 59.6-283 pmol/L
  HR Medicament in Marker-Quantile 2-4: 0.4
[2]; MR-proANP 283-1650 pmol/L
  HR Medicament in Marker-Quantile 5: 0.4
[2]; NT-proBNP 0.12-184 pg/mL
  HR Medicament in Marker-Quantile 1: >100
[2]; NT-proBNP 184-2700 pg/mL
  HR Medicament in Marker-Quantile 2-4: 0.3
[2]; NT-proBNP 2700-34100 pg/mL
  HR Medicament in Marker-Quantile 5: 0.5
[2]; biomarker CT-proAVP
  HR Medicament (overall patient group): 0.3
[2]; biomarker MR-proADM
  HR Medicament (overall patient group): 0.3
[2]; biomarker MR-proANP
  HR Medicament (overall patient group): 0.3
[2]; biomarker NT-proBNP
  HR Medicament (overall patient group): 0.3

## O=C(NCCO[N+](=O)[O-])c1cccnc1 [Nicorandil]
[2]; NT-proBNP 0.3-204 pg/mL
  HR Medicament in Marker-Quantile 1: 4.8
[2]; NT-proBNP 204-3160 pg/mL
  HR Medicament in Marker-Quantile 2-4: <0.1
[2]; NT-proBNP 3160-11800 pg/mL
  HR Medicament in Marker-Quantile 5: 0.5
[2]; biomarker NT-proBNP
  HR Medicament (overall patient group): 0.5
[3]; CT-proET-1 4.6-56.6 pmol/L
  HR Medicament in Marker-Quantile 1: 7.1
[3]; CT-proET-1 56.6-118 pmol/L
  HR Medicament in Marker-Quantile 2-4: 1.2
[3]; CT-proET-1 118-671 pmol/L
  HR Medicament in Marker-Quantile 5: 0.7
[3]; biomarker CT-proET-1
  HR Medicament (overall patient group): 1.2

## O=[N+]([O-])O [Nitrate]
[2]; FIG. 16A, marker CT-proAVP, overall population, n=494 with medication
  deaths with medication: 23
[2]; FIG. 16B, 1st CT-proAVP quintile (0.31-4.6 pmol/L), n=69 with medication
  deaths with medication: 2
[2]; FIG. 16C, 2nd to 4th CT-proAVP quintiles (4.6-42.1 pmol/L), n=318 with medication
  deaths with medication: 11
[2]; FIG. 16D, 5th CT-proAVP quintile (42.1-1040 pmol/L), n=107 with medication
  deaths with medication: 10
[2]; CT-ET-1 3.7-65.4 pmol/L
  HR Medicament in Marker-Quantile 1: 1
[2]; CT-ET-1 65.4-136 pmol/L
  HR Medicament in Marker-Quantile 2-4: 1
[2]; CT-ET-1 136-468 pmol/L
  HR Medicament in Marker-Quantile 5: 0.3
[2]; CT-proAVP 0.31-4.6 pmol/L
  HR Medicament in Marker-Quantile 1: 4.8
[2]; CT-proAVP 4.6-42.1 pmol/L
  HR Medicament in Marker-Quantile 2-4: 0.7
[2]; CT-proAVP 42.1-1040 pmol/L
  HR Medicament in Marker-Quantile 5: 0.3
[2]; MR-proANP 14.5-59.6 pmol/L
  HR Medicament in Marker-Quantile 1: >100
[2]; MR-proANP 59.6-283 pmol/L
  HR Medicament in Marker-Quantile 2-4: 0.9
[2]; MR-proANP 283-1650 pmol/L
  HR Medicament in Marker-Quantile 5: 0.3
[2]; NT-proBNP 0.12-184 pg/mL
  HR Medicament in Marker-Quantile 1: 1.9
[2]; NT-proBNP 184-2700 pg/mL
  HR Medicament in Marker-Quantile 2-4: 0.6
[2]; NT-proBNP 2700-34100 pg/mL
  HR Medicament in Marker-Quantile 5: 0.5
[2]; biomarker CT-ET-1
  HR Medicament (overall patient group): 0.6
[2]; biomarker CT-proAVP
  HR Medicament (overall patient group): 0.5
[2]; biomarker MR-proANP
  HR Medicament (overall patient group): 0.5
[2]; biomarker NT-proBNP
  HR Medicament (overall patient group): 0.7
[3]; CT-proAVP 0.3-3.6 pmol/L
  HR Medicament in Marker-Quantile 1: 2.8
[3]; CT-proAVP 3.6-18.7 pmol/L
  HR Medicament in Marker-Quantile 2-4: 1.2
[3]; CT-proAVP 18.7-441 pmol/L
  HR Medicament in Marker-Quantile 5: 0.6
[3]; CT-proET-1 4.6-56.6 pmol/L
  HR Medicament in Marker-Quantile 1: 2.4
[3]; CT-proET-1 56.6-118 pmol/L
  HR Medicament in Marker-Quantile 2-4: 0.9
[3]; CT-proET-1 118-671 pmol/L
  HR Medicament in Marker-Quantile 5: 0.9
[3]; MR-proADM 0.09-0.53 nmol/L
  HR Medicament in Marker-Quantile 1: 2.4
[3]; MR-proADM 0.53-1.16 nmol/L
  HR Medicament in Marker-Quantile 2-4: 0.9
[3]; MR-proADM 1.16-6.95 nmol/L
  HR Medicament in Marker-Quantile 5: 1
[3]; MR-proANP 4.9-65 pmol/L
  HR Medicament in Marker-Quantile 1: 3.8
[3]; MR-proANP 65-264 pmol/L
  HR Medicament in Marker-Quantile 2-4: 1
[3]; MR-proANP 264-1630 pmol/L
  HR Medicament in Marker-Quantile 5: 0.8
[3]; NT-proBNP 0.12-184 pg/mL
  HR Medicament in Marker-Quantile 1: 2.4
[3]; NT-proBNP 184-2700 pg/mL
  HR Medicament in Marker-Quantile 2-4: 0.8
[3]; NT-proBNP 2700-34100 pg/mL
  HR Medicament in Marker-Quantile 5: 0.9
[3]; biomarker CT-proAVP
  HR Medicament (overall patient group): 1.1
[3]; biomarker CT-proET-1
  HR Medicament (overall patient group): 1.1
[3]; biomarker MR-proADM
  HR Medicament (overall patient group): 1.1
[3]; biomarker MR-proANP
  HR Medicament (overall patient group): 1.1
[3]; biomarker NT-proBNP
  HR Medicament (overall patient group): 1

## COC(=O)[C@H](c1ccccc1Cl)N1CCc2sccc2C1 [Plavix]
[1]
  effect of administration at high (higher) levels of vasoactive hormones: positive effect
  effect of administration at low (lower) levels of vasoactive hormones: unfavourable effect
[1]; MR-proADM 0.05-0.47 nmol/L
  HR Medicament Marker-Quintile 1: 1.8
[1]; MR-proADM 0.47-0.91 nmol/L
  HR Medicament Marker-Quintile 2-4: 0.2
[1]; MR-proADM 0.91-5.49 nmol/L
  HR Medicament Marker-Quintile 5: 0.1
[1]; biomarker MR-proADM
  HR Medicament (overall patient group): 0.3

## COc1ccccc1OCCNCC(O)COc1cccc2[nH]c3ccccc3c12 (stereo not drawn) [carvedilol]
[4]
  effect on mortality and heart failure: reduced mortality and heart failure

## CCOC(=O)[C@H](CCc1ccccc1)N[C@@H](C)C(=O)N1CCC[C@H]1C(=O)O [elanapril]
[5]
  effect on mortality: beneficial effect
